# From US20150377888A1, “Methods for Predicting and Preventing Metastasis in Triple Negative Breast Cancers” (INSERM (INSTITUT NATIONAL DE LA SANTÉ ET DE LA RECHERCHE …, priority 2013, published 2015)
# T1: Nox-1 (human, UniProt Q9Y5S8 1-564, limits assumed)
# T1 sequence (looked up): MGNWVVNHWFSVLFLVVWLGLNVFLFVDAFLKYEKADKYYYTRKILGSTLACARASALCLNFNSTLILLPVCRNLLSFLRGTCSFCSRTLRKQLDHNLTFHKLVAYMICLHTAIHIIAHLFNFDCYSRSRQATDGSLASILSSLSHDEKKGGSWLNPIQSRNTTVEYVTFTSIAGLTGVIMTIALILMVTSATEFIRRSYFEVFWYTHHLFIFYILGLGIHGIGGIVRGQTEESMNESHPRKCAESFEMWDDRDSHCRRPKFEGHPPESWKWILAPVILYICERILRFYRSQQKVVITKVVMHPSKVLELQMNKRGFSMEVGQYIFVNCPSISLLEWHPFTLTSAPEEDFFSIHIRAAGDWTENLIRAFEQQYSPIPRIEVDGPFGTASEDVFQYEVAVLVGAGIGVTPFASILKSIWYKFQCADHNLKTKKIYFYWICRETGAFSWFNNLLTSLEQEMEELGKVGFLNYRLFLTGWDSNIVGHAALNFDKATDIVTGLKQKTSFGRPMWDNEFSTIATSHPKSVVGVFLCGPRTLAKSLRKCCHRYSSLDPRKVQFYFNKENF
# T2: Nox-4 (human, UniProt Q9NPH5 1-578, limits assumed)
# T2 sequence (looked up): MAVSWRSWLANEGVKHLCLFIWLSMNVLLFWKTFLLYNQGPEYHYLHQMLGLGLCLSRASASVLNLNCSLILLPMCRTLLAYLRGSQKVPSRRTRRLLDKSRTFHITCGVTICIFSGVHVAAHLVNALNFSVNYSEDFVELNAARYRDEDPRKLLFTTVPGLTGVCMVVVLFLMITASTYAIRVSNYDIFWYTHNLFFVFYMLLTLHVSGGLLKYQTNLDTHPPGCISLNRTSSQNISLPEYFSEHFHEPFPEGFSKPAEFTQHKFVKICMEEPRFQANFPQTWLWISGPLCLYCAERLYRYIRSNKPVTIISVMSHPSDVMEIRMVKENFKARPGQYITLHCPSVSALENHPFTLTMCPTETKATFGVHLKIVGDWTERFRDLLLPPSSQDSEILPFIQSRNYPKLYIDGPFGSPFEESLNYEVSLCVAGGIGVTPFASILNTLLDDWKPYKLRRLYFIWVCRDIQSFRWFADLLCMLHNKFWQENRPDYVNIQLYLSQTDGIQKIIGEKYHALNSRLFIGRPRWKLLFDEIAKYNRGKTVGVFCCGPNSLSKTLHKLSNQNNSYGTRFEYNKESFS
# T3: Nox-2 (human, UniProt P04839 2-570)
# T3 sequence (looked up): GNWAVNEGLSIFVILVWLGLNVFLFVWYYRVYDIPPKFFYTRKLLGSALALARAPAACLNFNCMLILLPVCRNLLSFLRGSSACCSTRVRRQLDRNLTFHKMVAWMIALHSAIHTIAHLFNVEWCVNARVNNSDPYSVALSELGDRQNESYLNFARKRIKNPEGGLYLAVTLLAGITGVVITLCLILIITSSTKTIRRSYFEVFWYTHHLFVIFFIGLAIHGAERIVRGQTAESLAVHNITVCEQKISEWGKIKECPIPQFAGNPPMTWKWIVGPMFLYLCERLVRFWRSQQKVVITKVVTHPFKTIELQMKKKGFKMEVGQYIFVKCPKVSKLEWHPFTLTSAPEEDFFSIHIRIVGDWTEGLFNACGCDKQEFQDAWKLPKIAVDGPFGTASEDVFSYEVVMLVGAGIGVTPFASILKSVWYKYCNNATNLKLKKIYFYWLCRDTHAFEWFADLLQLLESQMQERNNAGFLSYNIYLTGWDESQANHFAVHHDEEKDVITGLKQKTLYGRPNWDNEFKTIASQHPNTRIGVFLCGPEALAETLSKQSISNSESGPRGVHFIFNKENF
# What was measured:
# PI3K = test: Immunoblot of Akt phosphorylation at Ser473 (hallmark of PI3K activation) in cells exposed to cl-CD95L; format: cell-based, human; details: for effect on CD95-mediated PI3K activation (phosphorylation of Akt at serine 473): breast cancer / TNBC cells exposed to cl-CD95L; for effect on CD95-mediated activation of Aid: pre-treatment of mammary cancer cells, non-cytotoxic amounts
# Method: (§1) Cells were lysed for 30 min at 4° C. in lysis buffer [25 mM HEPES (pH 7.4), 1% v/v Triton X-100, 150 mM NaCl, and 2 mM EGTA supplemented with a mix of protease inhibitors (Sigma-Aldrich)]. Protein concentration was determined by the bicinchoninic acid method (PIERCE, Rockford, Ill., USA) according to the manufacturer's protocol. Proteins were separated by SDS-PAGE and transferred to a nitrocellulose membrane (GE Healthcare, Buckinghamshire, England). […] The proteins were visualized with the enhanced chemiluminescence substrate kit (ECL, GE Healthcare).
# [1] = tested on: TNBC breast cancer cell lines (Hs578T, MDA-MB-231 and MDA-MB-468); test: In vitro motility assay (Boyden chambers); format: cell-based, human; details: cells pre-treated with the agent (inhibitors at non-cytotoxic amounts), exposed to cl-CD95L
# Method: Boyden chambers (Millipore, Molsheim, France) containing 8 μm pore membranes were cultured in 24-well plates. After hydration of the membranes, 10^5 cells were added to the top chamber in low serum (1%)-containing medium. […] Cells were cultured for 24 h at 37° C. in a 5% CO2 humidified incubator. To quantify invasion, cells were fixed with methanol and stained with Giemsa. Stained cells were then removed from the top side of the membrane using a cotton-tipped swab and five representative pictures for each insert were taken of the invading cells from the reverse side. For each experiment, cells were lysed and absorbance at 560 nm was measured.
# c-yes = c-yes activation status (auto-phosphorylation at Tyrosine 426); format: cell-based, human; details: pre-treatment of mammary cancer cells, non-cytotoxic amounts
# Method: as §1
# NADPHox = test: Flow cytometry analysis of intracellular ROS (H2FDA); format: cell-based, human; details: pre-treatment with NADPHox inhibitor
# Method: Cells were pre-incubated for 30 min at 37° C. with 3 μM of H2FDA resuspended in PBS. The cells were then pre-incubated for an additional 30 min with or without ROS inhibitors before stimulation with 100 ng/ml cl-CD95L for the indicated times. Cells were then washed and analyzed by FACScalibur (BD Bioscience).
# [2] = tested on: CD95-mediated Ca2+ response; test: Ca2+ monitoring: CD95-mediated Ca2+ response; format: cell-based, human; details: TNBC cells exposed to cl-CD95L
# Method: For experiments on parent cell lines, breast cancer cells were loaded with Fura2-PE3-AM (1 μM) at room temperature for 30 min in Hank's Balanced Salt Solution (HBSS). After washing with HBSS, the cells were incubated for 15 min in the absence of Fura2-AM to complete de-esterification of the dye. Cells were placed in the temperature controlled chamber (37° C.) of an inverted epifluorescence microscope (Olympus IX70) equipped with an ×40 UApo/340-1.15 W water-immersion objective (Olympus), and fluorescence micrograph images were captured at 510 nm and 12-bit resolution by a fast-scan camera (CoolSNAP fx Monochrome, Photometrics). To minimize UV light exposure, a 4×4 binning function was used. […]
# For experiments on GFP-expressing cell lines, Fluo8-AM was used, instead of Fura2-PE3-AM for experiments with GFP-expressing cells (infected with shRNA-expressing lentivirus), because GFP fluorescence disturbs Ca^2+ measurement with Fura2-PE3. Efficiently transduced cells (GFP expressing cells) were located by their emission of fluorescence at 530±30 nm for a light excitation at 485±22 nm. Ca^2+ changes were evaluated by exciting Fluo8-AM-loaded cells at […]. The values of the emitted fluorescence (605±50 nm) for each cell (F) were normalized to the starting fluorescence (F0) and reported as F/F0 (relative Ca^2+[CYT]). […]
# EGFR = test: Ca2+ monitoring: EGF-induced Ca2+ response; format: cell-based, human; details: TNBC cells (MDA-MB-231) in presence of EGF
# Method: For experiments on parent cell lines, breast cancer cells were loaded with Fura2-PE3-AM (1 μM) at room temperature for 30 min in Hank's Balanced Salt Solution (HBSS). […] To minimize UV light exposure, a 4×4 binning function was used. Fura2-AM was alternately excited at 340 and 380 nm, and the ratios of the resulting images (excitations at 340 and 380 nm and emission filter at 520 nm) were produced at constant intervals (10 seconds). […] Fratio reflects the intracellular Ca^2+ concentration changes. Each experiment was repeated 3 times, and for each experimental condition, the average of more than 20 single-cell traces was used.
# CD95 (human) = CD95 (human) (UniProt P25445); test: cell-based or functional assay
# Nox-1 = target: T1, Nox-1; test: co-immunoprecipitation of CD95 (MISC) from MDA-MB-231 cells stimulated with cl-CD95L
# Method: (§2) The cells were then lysed, 1 μg of Apo1-3 was added to the cell lysate and CD95 was immunoprecipitated by the addition of protein A-sepharose beads (Sigma-Aldrich). […] After extensive washing, the immune complex was resolved by SDS-PAGE.
# Nox-4 = target: T2, Nox-4; test: as above
# Method: as §2
# Nox-2 = target: T3, Nox-2; test: as above
# Method: as §2
molecule,measurement,setting,value
"CC(=O)OCOC(=O)CN(CC(=O)OCOC(C)=O)c1ccccc1OCCOc1ccccc1N(CC(=O)OCOC(C)=O)CC(=O)OCOC(C)=O [BAPTA-AM, 1,2-bis-(o-Aminophenoxy)ethane-N,N,N′,N′-tetraacetic Acid Tetra-(acetoxymethyl) Ester]",effect on CD95-mediated PI3K activation (phosphorylation of Akt at serine 473),PI3K,inhibited
same,effect on migration of TNBC cells exposed to cl-CD95L,[1],inhibited
Cc1nnsc1C(=O)Nc1ccc(-n2nc(C(F)(F)F)cc2C(F)(F)F)cc1 [BTP2],effect on CD95-mediated PI3K activation (phosphorylation of Akt at serine 473),PI3K,inhibited
same,effect on migration of TNBC cells exposed to cl-CD95L,[1],inhibited
"c1ccc2c(c1)[I+]c1ccccc1-2 [DPI, diphenyleneiodonium chloride]",effect on CD95-mediated activation of Aid,PI3K,impaired
same,effect on CD95-mediated activation of c-yes,c-yes,impaired
same,effect on migration of TNBC cells exposed to cl-CD95L,[1],inhibited cell migration
same,effect on cl-CD95L-induced increase in intracellular ROS,NADPHox,blocked
COc1cc(C(C)=O)ccc1O [apocynin],effect on CD95-mediated activation of Aid,PI3K,impaired
same,effect on CD95-mediated activation of c-yes,c-yes,impaired
same,effect on migration of TNBC cells exposed to cl-CD95L,[1],inhibited cell migration
same,effect on cl-CD95L-induced increase in intracellular ROS,NADPHox,blocked
C#Cc1cccc(Nc2ncnc3cc(OCCOC)c(OCCOC)cc23)c1 [erlotinib],effect on CD95-mediated PI3K activation (phosphorylation of Akt at serine 473),PI3K,prevented
same,effect on migration of TNBC cells exposed to cl-CD95L,[1],abolished
same,effect on CD95-mediated Ca2+ response,[2],neither treatment with erlotinib nor EGFR silencing altered
same,effect on CD95-mediated Ca2+ response,[2]; listed as Erlotinib,do not alter
same,effect on EGF-induced Ca2+ response,EGFR,blocked
same,effect on EGF-induced Ca2+ response,EGFR; listed as Erlotinib,abolished
metalloprotease-cleaved CD95L (from UniProt P48023 130-281) (ligand),cell migration (Boyden chamber) of TNBC cells,CD95 (human),100 pg/mL
"CD95 (receptor, also called Fas; FasR) QVTDINSKGLELRKTVTTVETQNLEGLHHDGQFCHKPCPPGERKARDCTVNGDEPDCVPCQEGKEYTDKAHFSSKCRRCRLCDEGHGLEVEINCTRTQNTKCRCKPNFFCNSTVCEHCDPCTKCEHGIIKECTLTSNTKCKEEGSRSNLGWLCLLLLPIPLIVWVKRKEVQKTCRKHRKENQGSHESPTLNPETVAINLSDVDLSKYITTIAGVMTLSQVKGFVRKNGVNEAKIDEIKNDNVQDTAEQKVQLLRNWHQLHGKKEAYDTLIKDLKKANLCTLAEKIQTIILKDITSDSENSNFRNEIQSLV",binding result,Nox-1,no binding
same,binding result,Nox-4,no binding
same,binding result,Nox-2,no binding
